Patent publication US5104866A, “Water-soluble antibiotic composition and water-soluble salts of cephem compounds” (Fujisawa Pharmaceutical Company, Ltd., priority 1987, dated 1992)
Counter-ions that a name gives are not always drawn.

Key:
[1] = Dissolution test: velocity of dissolution of test samples after addition of distilled water at ambient temperature; format: physicochemical; settings: reference sample without carbonic acid salt
Procedure: As a comparison, the following reference samples were also tested.
The velosity of dissolution of the test samples were observed after addition of distilled water into said test samples at ambient temperature,respectively.

P. aeruginosa 26 = assay: In vitro antibacterial activity, two-fold agar-plate dilution method (MIC); format: cell-based; settings: Pseudomonas aeruginosa, HI-agar, 10^6 viable cells per ml, 37° C., 20 hours, read-out: minimal inhibitory concentration (MIC)
Procedure: Sodium 7-[2-allyloxyimino-2-(5-carboxylatoamino-1,2,4-thiadiazol-3-yl)acetamido]- 3-(1-pyridinio)methyl-3-cephem-4-carboxylate (syn isomer).
In vitro antibacterial activity was determined by the two-fold agar-plate dilution method as described below.

SMILES | Maximum concentration of this sample dissolved in water [1] | MIC (P. aeruginosa 26)
C=CCO/N=C(\C(=O)NC1C(=O)N2C(C(=O)[O-])=C(C[n+]3ccccc3)CSC12)c1nsc(N)n1 (stereo not drawn) [Reference Sample (1), 7-[2-allyloxyimino-2-(5-amino-1,2,4-thiadiazol-3-yl)acetamido]-3-(1-pyridinio)methyl-3-cephem-4-carboxylate (syn isomer)] | 4.07 % (w/v) | 
CO/N=C(\C(=O)NC1C(=O)N2C(C(=O)[O-])=C(C[n+]3ccccc3)CSC12)c1nsc(N)n1 (stereo not drawn) [Reference Sample (4), 7-[2-(5-amino-1,2,4-thiadiazol-3-yl)-2-methoxyiminoacetamido]-3-(1-pyridinio)methyl-3-cephem-4-carboxylate sulfate (syn isomer)] | 10 % (w/v) | 
C=CCO/N=C(\C(=O)NC1C(=O)N2C(C(=O)[O-])=C(C[n+]3ccccc3)CSC12)c1nsc(NC(=O)O)n1 (stereo not drawn) [Test salt, Sodium 7-[2-allyloxyimino-2-(5-carboxylatoamino-1,2,4-thiadiazol-3-yl)acetamido]-3-(1-pyridinio)methyl-3-cephem-4-carboxylate (syn isomer)] |  | 0.39 µg/mL
CO/N=C(\C(=O)NC1C(=O)N2C(C(=O)[O-])=C(C[n+]3ccccc3)CSC12)c1nsc(N)n1 (stereo not drawn) [Reference Sample (3), 7-[2-(5-amino-1,2,4-thiadiazol-3-yl)-2-methoxyiminoacetamido]-3-(1-pyridinio)methyl-3-cephem-4-carboxylate (syn isomer)] | 2 % (w/v) | 
C=CCO/N=C(\C(=O)NC1C(=O)N2C(C(=O)[O-])=C(C[n+]3ccccc3)CSC12)c1nsc(N)n1 (stereo not drawn) [Reference Sample (2), 7-[2-allyloxyimino-2-(5-amino-1,2,4-thiadiazol-3-yl)acetamido]-3-(1-pyridinio)methyl-3-cephem-4-carboxylate hydrochloride (syn isomer)] | 8.28 % (w/v) | 
